# In patent US12685733B2, “Indole molecules and use thereof in the inhibition of DNA polymerases” (BioVentures, LLC, priority 2019, dated 2026):
# Where two headings read alike, the source gives them in different places.
# Experiments:
# [1] = system: hpol κ-deficient HAP-1 cells; test: Alkaline comet assay; assay type: cell-based, human
# Experimental: (§1) To evaluate DNA damage upon treatment with TMZ and the compound IAG-10, the alkaline comet assay was performed using protocol as described by the manufacturer (Trevigen, Gaithersburg, MD). Briefly, 100 000 HAP-1 cells per well for both the hpol κ-proficient and hpol κ-deficient cell types were plated in a 12-well dish. Both types of cells were treated with 0.5 μM of IAG-10 alone or in combination with TMZ (100 μM) for 1 h. Cells treated with DMSO served as the control. Following treatment, cells were harvested, washed in ice-cold Ix PBS, and counted. The cells were then suspended in low-melting agarose to a final dilution of 200-300 cells per well on the comet slide. The comet slides with wells coated with cell/agarose mixture were incubated at 4° C. in the dark to allow the agarose to solidify before immersing the slides in proprietary lysis solution for 1 h. Each comet slide was then immersed in an alkaline unwinding solution (200 mM NaOH, 1 mM EDTA) for 20 min at RT before placing them in the electrophoresis unit in […] of the same solution. Samples were electrophoresed at 21 V for 30 min at 4° C. The comet slides were washed and dried completely at 37° C. before staining with SYBR Gold diluted in TE buffer (10 mM Tris-HCl, pH 7.5, 1 mM EDTA). The comets were visualized using an EVOS FL Auto microscope (Life Technologies, Carlsbad, CA) set at 10× magnification and were scored using CometScore software. All experiments were repeated in 3 biological replicates with at least 60 comets scored for each condition. Results were plotted using Graphpad Prism, as the percent of DNA in the tail of each comet, and statistical significance between treatment conditions was calculated using one-way ANOVA with the Bonferroni posthoc correction.
# [2] = system: hpol κ-proficient HAP-1 cells; test: Alkaline comet assay; assay type: cell-based, human
# Experimental: as §1
# [3] = system: NT2 cells; test: Clonogenic survival assay; assay type: cell-based, human; conditions: IAG-10 and TMZ in combination
# [4] = system: T98G cells; test: Clonogenic survival assay; assay type: cell-based, human
# [5] = system: T98G spheroids (GSC); test: GSC clonogenic survival assay; assay type: cell-based; conditions: 50 nM, 3 hours
# Experimental: GSC clonogenic survival assay. Spheroids proficient and deficient in hpol κ were cultured for 12 days as described above before treating with PNR 7-48 (50 nM) for 3 hours. Spheroids were harvested, titrated into single cell populations and counted via trypan blue exclusion assay. Around 500 viable cells were plated per well in a 6 well dish and allowed to recover for 8-10 days in MEM with 10% FBS. Cells were fixed with 4% formaldehyde (v/v) for 30 min followed by staining with crystal violet (Sigma Aldrich, St. Louis, MO) for 30 min. Total number of colonies were counted using the EVOS microscope, with viable colonies consisting of 25 cells or more. This experiment was done in technical triplicate. As with spheroid growth, clonogenic survival was impeded for T98G cells lacking hpol κ activity (FIG. 11).
# [6] = system: hpol κ-proficient HAP-1 cells; test: supF mutagenesis assay; conditions: 1 μM IAG-10, 24 h
# Experimental: HAP-1 hpol κ-proficient and hpol κ-deficient cells were cultured in 10 cm dishes to ~80% confluency in Iscove's modified Dulbecco's medium (Invitrogen) containing 10% (v/v) FBS supplemented with Ix antibiotic antimycotic solution (Sigma). They were transfected with unmodified (control) and methylmethanesulfonate (MMS)-modified pSP189 plasmid harboring the supF gene either in the absence or presence of 1 μM IAG-10. For plasmid modification with MMS, the pSP189 plasmid was first incubated with 100 mM MMS in 10 mM HEPES buffer (pH 7.5) containing 50 mM KCl, 5 mM MgCl2, and 1 mM dithiothreitol at RT for 1 h. The MMS-modified plasmid was then purified by ethanol precipitation and used in subsequent transfections, similar to the unmodified plasmid. […] The recovered plasmids (75-100 ng) were then transformed into E. coli MBM7070 strain by electroporation, and the transformed bacterial cells were plated on LB-agar plates containing 100 μg/mL ampicillin, 1 mM isopropyl-I-thio-fi-Dgalactopyranoside (IPTG) and 100 μg/mL X-gaL The resulting blue (nonmutated) and white (mutated) colonies were counted. The mutation frequency was calculated as the ratio of mutant (white) colonies to total (blue+white) colonies. At least 10 000 colonies were counted for each condition, and the results reported represent the mean (±SD) of experiments performed in biological triplicate.
# [7] = molecular target: T1, hpol η (Homo sapiens, UniProt Q9Y253); test: Fluorescence-based DNA polymerase activity assay; assay type: biochemical; conditions: for IC50: 95% confidence interval in parentheses, read-out: IC50 for inhibition of hpol η
# T1 construct: hpol η (residues 1-437); made in house
# T1 sequence (Q9Y253 1-437): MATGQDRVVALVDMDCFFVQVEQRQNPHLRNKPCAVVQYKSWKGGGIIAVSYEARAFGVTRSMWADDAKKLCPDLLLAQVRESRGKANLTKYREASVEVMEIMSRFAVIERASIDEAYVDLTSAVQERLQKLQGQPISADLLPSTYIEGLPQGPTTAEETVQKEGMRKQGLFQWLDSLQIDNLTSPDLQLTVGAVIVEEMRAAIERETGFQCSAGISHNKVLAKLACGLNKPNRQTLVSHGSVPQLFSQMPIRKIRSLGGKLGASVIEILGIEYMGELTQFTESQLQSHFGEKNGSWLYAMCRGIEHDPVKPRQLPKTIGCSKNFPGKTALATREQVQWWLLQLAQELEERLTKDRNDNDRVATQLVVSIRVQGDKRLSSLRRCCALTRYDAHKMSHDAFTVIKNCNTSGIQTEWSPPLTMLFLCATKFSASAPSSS
# Source text: The impact of IAG-10 on the affinity of hpol κ for DNA was an important insight and one that had not been observed previously with MK-886. It was reasoned that decreasing the concentration of either enzyme or DNA, might affect the IC50 value by shifting the equilibrium away from the formation of binary hpol c: DNA complex and toward the enzyme-inhibitor complex. To investigate this idea, the concentration of hpol and p/t-DNA was varied in the reaction mixture and measured the IC50 value for IAG-10. Decreasing the enzyme and DNA in solution led to a dramatic decrease in the IC50 for IAG-10 against hpol κ (FIG. 4A). […] Then, similar experiments were performed with hpol η by varying the concentration of enzyme and DNA in the reaction mixture an determining the IC50 value for IAG-10-mediated inhibition.
# [8] = molecular target: T2, hpol λ (Homo sapiens, UniProt Q9UGP5); test: Fluorescence-based polymerase assay, other pol families; assay type: biochemical; conditions: 10 μM; 10 nM hpol λ (X-family)
# T2 construct: hpol λ, residues 1-325; gift of Dr. Miguel Garcia-Diaz (Stony Brook University)
# T2 sequence (Q9UGP5 242-575 limits assumed): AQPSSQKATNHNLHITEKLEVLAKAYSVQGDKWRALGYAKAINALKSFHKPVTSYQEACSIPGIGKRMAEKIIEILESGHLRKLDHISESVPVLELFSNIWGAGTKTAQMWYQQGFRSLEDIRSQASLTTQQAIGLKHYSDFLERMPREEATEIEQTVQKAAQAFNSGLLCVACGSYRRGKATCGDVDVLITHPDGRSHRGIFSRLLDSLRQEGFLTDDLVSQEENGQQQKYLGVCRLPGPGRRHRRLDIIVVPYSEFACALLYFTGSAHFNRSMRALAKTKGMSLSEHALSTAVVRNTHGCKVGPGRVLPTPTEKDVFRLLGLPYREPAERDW
# [9] = 100 μM TMZ + 0.5 μM IAG-10, 1 h
# [10] = single agent, 1 h: 0.5 μM IAG-10 or 100 μM TMZ
structure (smiles),measurement,setting,value
"Cl.[H]/N=C(\N)NN=Cc1cn(C(=O)c2cccc3ccccc23)c2ccc(Cl)cc12 [IAG-10, (E)-2-((1-(1-naphthoyl)-5-chloro-1H-indol-3-y1)methylene)hydrazine-1-carboximidamide hydrochloride]","DNA damage (percent DNA in the tail), combination",[1]; [9],did not increase further
same,DNA damage (percent DNA in the tail) compared to control,[1]; [10],did not increase DNA damage over control
same,"DNA damage (percent DNA in the tail), combination",[2]; [9],increased even further
same,DNA damage (percent DNA in the tail) compared to control,[2]; [10],approximately twofold
same,"colony formation ability, combination",[3],did not exhibit changes in colony formation ability
same,"combination index (TMZ and IAG-10, Chou-Talalay)",[4]; IAG-10 50 nM + TMZ,0.09
same,decrease of cell proliferation (clonogenic) compared to TMZ alone,"[4]; IAG-10 50 nM along with TMZ, 3 hrs",~ 10 fold
same,decrease in GBM-derived cell proliferation compared to NT2 cells,"[4]; IAG-10 alone, concentrations above that used for combination",~ 2 fold
same,GSC differentiation,[5],inhibit GSC differentiation
same,mutation frequency for the undamaged plasmid,[6],did not change the mutation frequency
same,mutation frequency for MMS-damaged DNA over the undamaged control plasmid,[6]; MMS-damaged pSP189,approximately twofold
same,IC50,[7]; 2 nM DNA,22.5 µM
same,IC50,[7]; 50 nM DNA,14.3 µM
same,"Michaelis constant, hpol η",[7]; steady-state kinetics with increasing inhibitor concentration,linear increase
same,"turnover number (kcat), hpol η",[7]; steady-state kinetics with varying inhibitor concentration,no measurable change
same,polymerase activity relative to DMSO control,[8],only hpol κ activity was inhibited
